# Experimental data as given in patent publication US20250325645A1, “BOVINE VIRAL DIARRHEA VIRUS IMMUNOGENIC COMPOSITIONS AND METHODS OF USE THEREOF” (KANSAS STATE UNIVERSITY RESEARCH FOUNDATION, priority 2021, published 2025).
# System: CD8+ T cells from BVDV-immunized steers
# Experiment: MHC I blocking ELISPOT assay
# Conditions: steers 2539 and 2593; 2.5 μg/ml peptide; mAbs H58A and PT85A at 1.0 μg/ml vs IgG2a isotype control; p<0.05
# Description: Co-cultures of CD8+ T cells and autologous CD14+ monocytes from one TGAC-immunized steer (2539) and one A125-immunized steer (2593), were incubated with 2.5 μg/ml of peptide in the presence of either the two anti-bovine MHC I mAbs or IgG2a isotype control. The IFN-γ+CD8+ T cell responses in the presence or absence of anti-bovine MHC I mAbs were reported as SFC per million CD8+ T cells described as above.
# The results from MHC I blocking ELISPOT assay were analyzed by Wilcoxon test in GraphPad Prism 7 (Version 7.04, GraphPad Software, Inc. La Jolla, CA). The significance of the difference in peptide-specific IFN-γ+CD8+ T cell responses in the absence or presence of anti-bovine MHC I mAbs was determined by a non-parametric test and the level of significance was set at p<0.05.
row,Sequence,IFN-γ+CD8+ T cell recall responses in the presence of anti-bovine MHC I mAbs
1,FGAYAASPY [Peptide 86],significantly reduced
2,GPVYHRAPL [Peptide 61],significantly reduced
3,GSVWNLGKY [Peptide 56],significantly reduced
4,SEQKRTLLM [Peptide 37],significantly reduced
5,YFEPRDNYF [Peptide 100],significantly reduced
6,YYDDNLNEI [Peptide 64],significantly reduced
